How the values were obtained:
[1] = log P from HPLC-MS, no method note printed; assay type: physicochemical; details: method not given
[2] = logP by HPLC on a C18 phase inversion column, EEC Directive 79/831 Annex V.A8, method b) (HP1100, 5-95% acetonitrile in 1.70 min); assay type: physicochemical; details: HPLC method b)
Description: ^b) Note regarding the determination of the log P values and mass detection: The log P values given were determined in accordance with EEC Directive 79/831 Annex V.A8 by HPLC (High Performance Liquid Chromatography) on a phase inversion column (C18). HP1100; 50*4.6 Zorbax Eclipse Plus C18 1.8 micron; eluent A: acetonitrile (0.1% formic acid); eluent B: water (0.08% formic acid); linear gradient from 5% acetonitrile to 95% acetonitrile in 1.70 min, then 95% acetonitrile for a further 1.00 min; oven temperature 55° C.; flow: 2.0 ml/min. The mass detection is carried out via the mass detector Micromass ZQ2000 from Waters.

`Cn1nc(OCC(F)(F)F)cc1C(=O)O` [1-Methyl-3-(2,2,2-trifluoroethoxy)-1H-pyrazole-5-carboxylic acid] showed a chromatographic logP [1] of 1.65.

For `Cn1nc(C(F)(F)C(F)(F)F)c(I)c1C(=O)O` [1-Methyl-3-pentafluoroethyl-4-iodo-1H-pyrazole-5-carboxylic acid], the chromatographic logP [1] was 2.33.

`Cn1nc(-c2ccc(C(F)(F)F)cc2)c(C(F)(F)F)c1C(=O)O` [1-Methyl-4-(trifluoromethyl)-3-[4-(trifluoromethyl)phenyl]-1H-pyrazole-5-carboxylic acid] showed a chromatographic logP [1] of 1.24.

`O=C(O)c1cnc(C(F)(F)C(F)(F)F)nc1C(F)(F)C(F)(F)F` [2,4-Bis(pentafluoroethyl)pyrimidine-5-carboxylic acid] showed a chromatographic logP [1] of 2.24.

With `O=C(O)c1sc(C(F)(F)C(F)(F)F)nc1C(F)(F)F` [2-(Pentafluoroethyl)-4-(trifluoromethyl)-1,3-thiazole-5-carboxylic acid] the chromatographic logP [1] was 2.06.

Work on `Cc1nc(C(N)=O)c(C(F)(F)F)c(C(F)(F)C(F)(F)F)n1` [2-Methyl-6-(pentafluoroethyl)-5-(trifluoromethyl)pyrimidine-4-carboxamide] yielded a chromatographic logP [1] of 2.33.

`Cn1nc(C(C)(C)F)c(C(F)(F)F)c1C(=O)O` [3-(2-Fluoropropan-2-yl)-1-methyl-4-(trifluoromethyl)-1H-pyrazole-5-carboxylic acid] showed a chromatographic logP [1] of 1.43.

Molecule `Cn1nc(OC(F)F)cc1C(=O)O` [3-(Difluoromethoxy)-1-methyl-1H-pyrazole-5-carboxylic acid] has a chromatographic logP [1] of 1.15.

Molecule `Cn1nc(C(F)F)c(C(F)(F)F)c1C(=O)O` [3-(Difluoromethyl)-1-methyl-4-(trifluoromethyl)-1H-pyrazole-5-carboxylic acid] has a chromatographic logP [1] of 1.1.

For `Cn1nc(C2CC2)c(C(F)(F)F)c1C(=O)O` [3-Cyclopropyl-1-methyl-4-(trifluoromethyl)-1H-pyrazole-5-carboxylic acid], the chromatographic logP [1] was 1.74.

In the case of `Cn1nc(C(O)C2CC2)c(C(F)(F)F)c1C(=O)O` (centres unmarked) [3-[Cyclopropyl(hydroxy)methyl]-1-methyl-4-(trifluoromethyl)-1H-pyrazole-5-carboxylic acid], the chromatographic logP [1] is reported as 0.72.

In the case of `O=C(O)c1cnc(C(F)(F)F)nc1-c1ccccn1` [4-(Pyridin-2-yl)-2-(trifluoromethyl)pyrimidine-5-carboxylic acid], the chromatographic logP [1] is reported as 1.5.

Molecule `Cn1nc(OCC(F)(F)F)c(Br)c1C(=O)O` [4-Bromo-1-methyl-3-(2,2,2-trifluoroethoxy)-1H-pyrazole-5-carboxylic acid] has a chromatographic logP [1] of 2.03.

In the case of `Cn1nc(OC(F)F)c(Br)c1C(=O)O` [4-Bromo-3-(difluoromethoxy)-1-methyl-1H-pyrazole-5-carboxylic acid], the chromatographic logP [1] is reported as 1.52.

In the case of `Cn1nc(C2CC2)c(Br)c1C(=O)O` [4-Bromo-3-cyclopropyl-1-methyl-1H-pyrazole-5-carboxylic acid], the chromatographic logP [1] is reported as 1.76.

With `Cn1nc(OCC(F)(F)F)c(Cl)c1C(=O)O` [4-Chloro-1-methyl-3-(2,2,2-trifluoroethoxy)-1H-pyrazole-5-carboxylic acid] the chromatographic logP [1] was 2.

Molecule `Cn1nc(OC(F)F)c(Cl)c1C(=O)O` [4-Chloro-3-(difluoromethoxy)-1-methyl-1H-pyrazole-5-carboxylic acid] has a chromatographic logP [1] of 1.5.

Work on `O=C(O)c1nccc(Cl)c1C(F)(F)F` [4-Chloro-3-(trifluoromethyl)pyridine-2-carboxylic acid] yielded a chromatographic logP [1] of 1.16.

For `Cn1nc(OCC(F)(F)F)c(F)c1C(=O)O` [4-Fluoro-1-methyl-3-(2,2,2-trifluoroethoxy)-1H-pyrazole-5-carboxylic acid], the chromatographic logP [1] was 1.83.

In the case of `Cn1nc(OCC(F)(F)F)c(I)c1C(=O)O` [4-Iodo-1-methyl-3-(2,2,2-trifluoroethoxy)-1H-pyrazole-5-carboxylic acid], the chromatographic logP [1] is reported as 2.11.

Work on `Cn1nc(OC(F)F)c(I)c1C(=O)O` [4-Iodo-3-(difluoromethoxy)-1-methyl-1H-pyrazole-5-carboxylic acid] yielded a chromatographic logP [1] of 1.64.

`Cn1nc(C(F)(F)C(F)(F)F)c(C(F)(F)F)c1SCc1ccccc1` [5-(Benzylsulphanyl)-1-methyl-3-(pentafluoroethyl)-4-(trifluoromethyl)-1H-pyrazole] gave a chromatographic logP [1] of 5.

`CCOC(=O)c1cnc(C(F)(F)C(F)(F)F)nc1C(F)(F)C(F)(F)F` [Ethyl 2,4-bis(pentafluoroethyl)pyrimidine-5-carboxylate] showed a chromatographic logP [1] of 4.41.

Molecule `CCOC(=O)c1sc(C(F)(F)C(F)(F)F)nc1C(F)(F)F` [Ethyl 2-(pentafluoroethyl)-4-(trifluoromethyl)-1,3-thiazole-5-carboxylate] has a chromatographic logP [1] of 4.36.

Molecule `CCOC(=O)c1c(C(F)(F)F)c(C(C)(C)F)nn1C` [Ethyl 3-(2-fluoropropan-2-yl)-1-methyl-4-(trifluoromethyl)-1H-pyrazole-5-carboxylate] has a chromatographic logP [1] of 3.55.

In the case of `CCOC(=O)c1c(C(F)(F)F)c(C(C)(C)O)nn1C` [Ethyl 3-(2-hydroxypropan-2-yl)-1-methyl-4-(trifluoromethyl)-1H-pyrazole-5-carboxylate], the chromatographic logP [1] is reported as 2.33.

Work on `CCOC(=O)c1c(C(F)(F)F)c(C(F)F)nn1C` [Ethyl 3-(difluoromethyl)-1-methyl-4-(trifluoromethyl)-1H-pyrazole-5-carboxylate] yielded a chromatographic logP [1] of 3.05.

Molecule `CCOC(=O)c1c(C(F)(F)F)c(C(O)C2CC2)nn1C` (centres unmarked) [Ethyl 3-[cyclopropyl(hydroxy)methyl]-1-methyl-4-(trifluoromethyl)-1H-pyrazole-5-carboxylate] has a chromatographic logP [1] of 2.38.

Work on `CCOC(=O)c1c(C(F)(F)F)c(C2CC2)nn1C` [Ethyl 3-cyclopropyl-1-methyl-4-(trifluoromethyl)-1H-pyrazole-5-carboxylate] yielded a chromatographic logP [1] of 3.66.

Molecule `CCOC(=O)c1c(I)c(C2CC2)nn1C` [Ethyl 3-cyclopropyl-4-iodo-1-methyl-1H-pyrazole-5-carboxylate] has a chromatographic logP [1] of 3.56.

Work on `CCOC(=O)c1c(C(F)(F)F)c(C=O)nn1C` [Ethyl 3-formyl-1-methyl-4-(trifluoromethyl)-1H-pyrazole-5-carboxylate] yielded a chromatographic logP [1] of 2.4.

`CCOC(=O)c1cnc(C(F)(F)F)nc1-c1ccccn1` [Ethyl 4-(pyridin-2-yl)-2-(trifluoromethyl)pyrimidine-5-carboxylate] gave a chromatographic logP [1] of 3.09.

Work on `CCOC(=O)c1c(C(F)(F)F)c(CO)nn1C` [Ethyl-3-(hydroxymethyl)-1-methyl-4-(trifluoromethyl)-1H-pyrazole-5-carboxylate] yielded a chromatographic logP [1] of 1.74.

For `Cn1nc(C(F)(F)C(F)(F)F)c(C(F)(F)F)c1C(=O)Nc1ccc(Cl)c(C(=O)NCc2ccc(F)cc2)c1` [Ik-312], the logP [2] was 3.73^b).

With `Cn1nc(C(F)(F)C(F)(F)F)c(C(F)(F)F)c1C(=O)Nc1ccc(Cl)c(C(=O)NCc2ccncc2)c1` [Ik-313] the logP [2] was 1.93^b).

`COC(=O)c1cc(OCC(F)(F)F)nn1C` [Methyl 1-methyl-3-(2,2,2-trifluoroethoxy)-1H-pyrazole-5-carboxylate] showed a chromatographic logP [1] of 2.61.

`COC(=O)c1cc(-c2ccc(C(F)(F)F)cc2)nn1C` [Methyl 1-methyl-3-[4-(trifluoromethyl)phenyl]-1H-pyrazole-5-carboxylate] showed a chromatographic logP [1] of 3.82.

With `COC(=O)c1c(C(F)(F)F)c(-c2ccc(C(F)(F)F)cc2)nn1C` [Methyl 1-methyl-4-(trifluoromethyl)-3-[4-(trifluoromethyl)phenyl]-1H-pyrazole-5-carboxylate] the chromatographic logP [1] was 4.14.

Work on `COC(=O)c1c(I)c(OC(F)F)nn1C` [Methyl 3-(difluoromethoxy)-4-iodo-1-methyl-1H-pyrazole-5-carboxylate] yielded a chromatographic logP [1] of 2.69.

`COC(=O)c1c(Br)c(OCC(F)(F)F)nn1C` [Methyl 4-bromo-1-methyl-3-(2,2,2-trifluoroethoxy)-1H-pyrazole-5-carboxy late] showed a chromatographic logP [1] of 3.14.

`COC(=O)c1c(Br)c(OC(F)F)nn1C` [Methyl 4-bromo-3-(difluoromethoxy)-1-methyl-1H-pyrazole-5-carboxylate] showed a chromatographic logP [1] of 2.62.

`COC(=O)c1c(Cl)c(OCC(F)(F)F)nn1C` [Methyl 4-chloro-1-methyl-3-(2,2,2-trifluoroethoxy)-1H-pyrazole-5-carboxylate] showed a chromatographic logP [1] of 3.08.

Work on `COC(=O)c1c(Cl)c(OC(F)F)nn1C` [Methyl 4-chloro-3-(difluoromethoxy)-1-methyl-1H-pyrazole-5-carboxylate] yielded a chromatographic logP [1] of 2.57.

`COC(=O)c1c(F)c(OCC(F)(F)F)nn1C` [Methyl 4-fluoro-1-methyl-3-(2,2,2-trifluoroethoxy)-1H-pyrazole-5-carboxylate] gave a chromatographic logP [1] of 2.79.

`COC(=O)c1c(I)c(OCC(F)(F)F)nn1C` [Methyl 4-iodo-1-methyl-3-(2,2,2-trifluoroethoxy)-1H-pyrazole-5-carboxylate] showed a chromatographic logP [1] of 3.17.

Work on `COC(=O)c1c(I)c(-c2ccc(C(F)(F)F)cc2)nn1C` [Methyl 4-iodo-1-methyl-3-[4-(trifluoromethyl)phenyl]-1H-pyrazole-5-carboxylate] yielded a chromatographic logP [1] of 4.23.

`COC(=O)c1cc(OC(F)F)nn1C` [Methyl-3-(difluoromethoxy)-1-methyl-1H-pyrazole-5-carboxylate] showed a chromatographic logP [1] of 2.04.
